From paper PMC7156458, “Synthetic biology based construction of biological activity-related library of fungal decalin-containing diterpenoid pyrones” (Nature Communications, 2020) come the findings set out here.

The CC50 is the concentration that lowers cell viability or growth by half. The EC50 is the concentration at which the effect is half-maximal.

Where “and” joins values, the source holds several entries; their conditions need not be identical. Equal entries are not always repeated. Where two headings read alike, the source gives them in different places.

One data set deals with MAGI cells. In words: cytotoxicity in the anti-HIV assay (CC50). The data set is classed as cell-based. The source says: (§1) We examined the inhibitory activities of DDPs against various species of bacteria (both gram-negative and gram-positive bacteria), fungi and viruses. […] In contrast, preliminary screening of the DDPs for anti-viral agents with hepatitis B virus (HBV), measles virus (MV), Epstein-Barr virus (EBV), herpes simplex virus (HSV) and human immunodeficiency virus-1 (HIV-1) indicated their selective inhibition of HIV.
Policy information about cell lines […]
HeLa-CD4-LTR/ !-galactosidase (MAGI) cells provided by Dr. J. Overbaugh through the NIH AIDS Research and Reference […]
MAGI cells were authenticated by the NIH.
Mycoplasma contamination All the cell lines tested negative for mycoplasma contamination.
Commonly misidentified lines No commonly mis-identified cell lines. […]

The subject of data set [1] is human immunodeficiency virus-1 (HIV-1). In words: anti-HIV MAGI assay. The data set is classed as cell-based. As to conditions: anti-HIV.
Description: as §1

The test system of data set [2] is MCF-7 cells. In words: cell cytotoxic effects against MCF-7 cells (72 h), A490. The data set is classed as cell-based, human. As to conditions: MCF-7, 72 h; for viability at 0.1 µM / viability at 1 µM / viability at 10 µM: Homo sapiens, MCF7, 72 h, read-out: A490 (control =1) ave. The protocol:
!" ' ' '! !" ' ' '! !" ' ' '!!" ' ' '!!" ' ' '!!" ' ' '!!" ' ' '!!" ' ' '! !" ' ' '! !" ' ' '! !" ' ' '! !"#$
( % ) * '! '' '# '+ '$ '( '%
! " # $ %& %% %' %( %) %! %"
!" ' ' '! !" ' ' '!!" ' ' '!!" ' ' '!!" ' ' '!!" ' ' '!!" ' ' '! !" ' ' '! !" ' ' '! !" ' ' '! !" ' ' '! […]
Supplementary Fig. 46. a, Cell cytotoxic effects of DDPs against MCF-7 cells (72 h).
dose dependent cytotoxic effects against MCF-7 cells were tested their inhibitory activity against mammosphere
formation. Compound in blue (16) was also performed mammosphere assay as negative control. Data represent
mean±s.d. from three independent replicate experiments. […]
Source data underlying Supplementary Figure 46a are provided in a Source Data file. […]

The test system of data set [3] is MCF-7 cells. In words: mammosphere formation assay. It is filed as cell-based, human. The note with it: MCF-7, 5 μM, 7 days; for MFE (%) ave: mean of 3, control 0.87; for MFE (control = 1) ave: relative to control = 1; for MFE (%): single replicates. The protocol: We also evaluated antiproliferative activity against cancer stem cells (CSCs), which are a small sub-population in tumour bulk identified in most cancer cells and clinical samples[52]. CSCs have been a major problem in cancer therapy because they are responsible for recurrence, metastasis and drug resistance to chemotherapeutic agents that affect proliferative cells[53]–[56]. Anti-CSC activity was evaluated by the inhibition of sphere-forming ability, a well-studied method to enrich the CSC-like population, and selective cytotoxicity against one of the most reliable CSC markers, aldehyde dehydrogenase (ALDH)-positive cells. […] Low-toxicity 16 was also added as a negative control. […] We next evaluated the three DDPs that inhibited mammosphere formations against ALDH-positive cells, a functional marker for breast CSCs. MCF-7 cells were treated with 1 μM of 11, 12 or 22, and the ALDH-positive cell population was analysed by using a fluorescence activated cell sorter (Supplementary Fig. 46b). […] Thus, for the first time, we successfully found DDPs with potent antiproliferative effects on the CSC-like population in MCF-7 cells, which may lead to new anti-CSC drugs.
Fig. 5 DDPs show anti-CSC activity in breast cancer cell line MCF-7. a Effect of DDPs on mammosphere formation. After the cells were cultured in the presence of 5 μM DDPs for 7 days, the number of mammospheres was microscopically counted and the percentage of mammosphere-forming cells was determined as mammosphere-forming efficiency (MFE; %). Data represent mean ± s.d. from three independent replicate experiments. P-values were calculated by a two-sided unpaired Student’s t-test, compared with control. b Micrographs show representative images of mammosphere formation from three independent replicate experiments using compound 11, 12, 16, 22. The scale bar, […]. c Effect of DDPs (1 μM, 3 days) on ALDH-positive cells in MCF-7 cells. Data represent mean ± s.d. from three independent replicate experiments. P-values were calculated by a two-sided unpaired Student’s t-test, compared with control. d Dose-dependent effect of compound 12 on ALDH-positive cells in MCF-7 cells. Data represent mean ± s.d. from three independent replicate experiments. P-values were calculated by a two-sided unpaired Student’s t-test. Source data underlying Fig. 5a, c, d are provided in a Source Data file.

[4] abbreviates: 0.1 µM (DMSO 0.002%), control 1.064.
The mark [5] stands for this setting: 1 µM (DMSO 0.02%), control 1.104.
Where [6] appears, read: 10 µM (DMSO 0.2%), control 1.049.

Consider `Cc1cn([C@H]2C[C@H](N=[N+]=[N-])[C@@H](CO)O2)c(=O)[nH]c1=O` [AZT, reference compound], for which, in the data set with MAGI cells, the CC50 was greater than 10000 nM and the Cytotoxicity was greater than 10 µM. Besides, the EC50 in data set [1] (MAGI assay, read-out: EC50) amounted to 29.7 nM. Moreover, the concentration for a half-maximal effect (EC50) in data set [1] (average of numeric determinations, read-out: Avg. EC50) was 29.7 nM.
With `Cc1oc(=O)cc(O)c1C` [Compound 1], the Cytotoxicity with MAGI cells (single determinations) is >10 µM and 9.224 µM and 8.859 µM. Also, the EC50 in data set [1] (Human immunodeficiency virus 1, MAGI, average of numeric determinations, read-out: Avg. EC50) worked out at 76 nM.
For the compound `CC(C)=CCCC1(C)OC1CC/C(C)=C/CC/C(C)=C/Cc1c(O)c(C)c(C)oc1=O` (centres unmarked) [Compound 3], the EC50 in data set [1] (Human immunodeficiency virus 1, MAGI, single determinations, read-out: Efficacy (EC50)) was greater than 10000 nM.
As for `O=c1[nH]cc(F)c(=O)[nH]1` [Compound 5-FU, 5-fluorouracil, reference compound], the viability at 0.1 µM in the data set with MCF-7 cells [2] (0.1 µM (DMSO 0.002%)) came out at 75.5%. For the same compound, the viability at 1 µM in the data set with MCF-7 cells [2] (1 µM (DMSO 0.02%)) was determined as 67.3%. The viability at 10 µM in the data set with MCF-7 cells [2] (10 µM (DMSO 0.2%)) was determined as 55.5%. Further, the A490 ave in the data set with MCF-7 cells [2] (setting [4]) was 0.803; in the data set on MCF-7 cells [2] (setting [5]), 0.744; with MCF-7 cells [2] (setting [6]), 0.582. In the data set on MCF-7 cells [3], the “MFE (%) ave” value was found to be 1.09%. Besides, the “MFE (control = 1) ave” value in the data set with MCF-7 cells [3] stood at 1.25. The “MFE (%)” value with MCF-7 cells [3] is 1.16% and 1.20% and 0.90%.
In the case of `COc1cccc2c1C(=O)c1c(O)c3c(c(O)c1C2=O)C[C@@](O)(C(=O)CO)C[C@@H]3O[C@H]1C[C@H](N)[C@H](O)[C@H](C)O1` [Dox, doxorubicin, reference compound], in the data set with MCF-7 cells [2] (0.1 µM (DMSO 0.002%)), the viability at 0.1 µM turned out to be 82.9%. Moreover, in the data set on MCF-7 cells [2] (1 µM (DMSO 0.02%)), the viability at 1 µM is 47.4%. Besides, in the data set on MCF-7 cells [2] (10 µM (DMSO 0.2%)), the viability at 10 µM turned out to be 21%. In addition, the A490 ave with MCF-7 cells [2] (setting [4]) is reported as 0.882. For the same compound, the A490 ave in the data set on MCF-7 cells [2] (setting [5]) came out at 0.523. In the data set on MCF-7 cells [2] (setting [6]), this compound yielded an A490 ave of 0.220. The compound also yielded an A490 in the data set with MCF-7 cells [2] (10 µM (DMSO 0.2%), single replicates) of 0.193. Also, in the data set on MCF-7 cells [3], the “MFE (%) ave” value is 0.58%; the “MFE (control = 1) ave” value stood at 0.67; the “MFE (%)” value is 0.68% and 0.52% and 0.54%.
